Reference: patent US11111251B2, “Positive allosteric modulators of the muscarinic acetylcholine receptor M1” (Vanderbilt University, priority 2016, dated 2021)

Target: T1, human mAChR M1 (Homo sapiens, UniProt P11229)
T1 sequence (P11229 1-460): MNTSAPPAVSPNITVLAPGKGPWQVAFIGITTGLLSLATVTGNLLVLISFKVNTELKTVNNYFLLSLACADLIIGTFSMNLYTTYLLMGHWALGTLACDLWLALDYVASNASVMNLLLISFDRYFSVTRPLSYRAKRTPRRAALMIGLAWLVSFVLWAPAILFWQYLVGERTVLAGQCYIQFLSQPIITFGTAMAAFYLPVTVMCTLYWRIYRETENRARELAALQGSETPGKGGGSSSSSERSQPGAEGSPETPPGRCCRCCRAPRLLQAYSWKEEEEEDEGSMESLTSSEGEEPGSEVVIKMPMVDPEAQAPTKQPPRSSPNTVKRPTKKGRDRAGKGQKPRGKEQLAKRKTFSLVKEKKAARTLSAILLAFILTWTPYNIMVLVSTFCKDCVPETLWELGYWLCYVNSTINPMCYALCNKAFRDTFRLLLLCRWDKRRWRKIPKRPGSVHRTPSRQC
Experiment: mAChR M1 cell-based functional assay: calcium mobilization, positive allosteric modulator mode (increase in EC20 acetylcholine response)
Conditions: Table 2, human M1; for EC50: read-out: Human M1 EC50; for Emax: read-out: Human M1 Emax (%)
Procedure, shortened: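 Calcium-flux assay in CHO-K1 cells stably expressing human M1, loaded with Fluo-4 AM (50 min, 37 °C) and read at 1 Hz. Compound (11-point, 1:3 series) was added at 4 s, EC20 acetylcholine at 144 s and EC80 at 230 s. PAM activity is the concentration-dependent rise in the EC20 response, fitted with a four-parameter logistic.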

SMILES | EC50 [µM] | Emax [%]
Cc1csc2c(Cc3ccc(-c4ccn(C)n4)cc3)cc(C(=O)N[C@H]3CCCC[C@@H]3O)nc12 [Compound 312, N-[(1S,2S)-2-hydroxycyclohexyl]-3-methyl-7-[[4-(1-methylpyrazol-3-yl)phenyl]methyl]thieno[3,2-b]pyridine-5-carboxamide] | 0.109 | 65.5
Cc1csc2c(Cc3ccc(-c4ccn(C)n4)cc3)cc(C(=O)N[C@H]3CCOC[C@@H]3O)nc12 [Compound 313] | 0.0227 | 63.9
O=C(N[C@H]1CCC[C@@H]1O)c1cc(Cc2ccc(-c3nccs3)cc2)c2sccc2n1 [Compound 314] | 0.203 | 84.1
Cc1csc2c(Cc3ccc(-n4cccn4)cc3)cc(C(=O)NC3CC4(COC4)C3)nc12 [Compound 315, 3-methyl-N-(2-oxaspiro[3.3]heptan-6-yl)-7-[(4-pyrazol-1-ylphenyl)methyl]thieno[3,2-b]pyridine-5-carboxamide] | 0.475 | 82.3
Cc1csc2c(Cc3ccc(-n4cccn4)cc3)cc(C(=O)N[C@@H]3CCOC3)nc12 [Compound 316, 3-methyl-7-[(4-pyrazol-1-ylphenyl)methyl]-N-[(3R)-tetrahydrofuran-3-yl]thieno[3,2-b]pyridine-5-carboxamide] | 1.09 | 56.5
Cc1csc2c(Cc3ccc(-n4cccn4)cc3)cc(C(=O)N[C@H]3CCOC3)nc12 [Compound 317, 3-methyl-7-[(4-pyrazol-1-ylphenyl)methyl]-N-[(3S)-tetrahydrofuran-3-yl]thieno[3,2-b]pyridine-5-carboxamide] | 1.68 | 43.1
Cc1csc2c(Cc3ccc(-n4cccn4)cc3)cc(C(=O)NC3COC3)nc12 [Compound 319, 3-methyl-N-(oxetan-3-yl)-7-[(4-pyrazol-1-ylphenyl)methyl]thieno[3,2-b]pyridine-5-carboxamide] | 1.81 | 56.1
Cc1csc2c(Cc3ccc(-n4cccn4)cc3)cc(C(=O)NCC3CCCCO3)nc12 (stereo not drawn) [Compound 320, 3-methyl-7-[(4-pyrazol-1-ylphenyl)methyl]-N-(tetrahydropyran-2-ylmethyl)thieno[3,2-b]pyridine-5-carboxamide] | 3.98 | 60.7
Cc1csc2c(Cc3ccc(-n4cccn4)cc3)cc(C(=O)NCC3CCOC3)nc12 (stereo not drawn) [Compound 321, 3-methyl-7-[(4-pyrazol-1-ylphenyl)methyl]-N-(tetrahydrofuran-3-ylmethyl)thieno[3,2-b]pyridine-5-carboxamide] | 0.805 | 79.2
Cc1csc2c(Cc3ccc(-n4cccn4)cc3)cc(C(=O)NC[C@H]3CCCO3)nc12 [Compound 322, 3-methyl-7-[(4-pyrazol-1-ylphenyl)methyl]-N-[[(2R)-tetrahydrofuran-2-yl]methyl]thieno[3,2-b]pyridine-5-carboxamide] | 0.62 | 75.1
Cc1csc2c(Cc3ccc(-n4cccn4)cc3)cc(C(=O)NCC3CCO3)nc12 (stereo not drawn) [Compound 324, 3-methyl-N-(oxetan-2-ylmethyl)-7-[(4-pyrazol-1-ylphenyl)methyl]thieno[3,2-b]pyridine-5-carboxamide] | 1.05 | 78.9
Cn1ccc(-c2ccc(Cc3cc(C(=O)NC4CCOC(C)(C)C4)nc4ccsc34)cc2)n1 (stereo not drawn) [Compound 325, N-(2,2-dimethyltetrahydropyran-4-yl)-7-[[4-(1-methylpyrazol-3-yl)phenyl]methyl]thieno[3,2-b]pyridine-5-carboxamide] | 0.907 | 83.3
Cn1cc(-c2ccc(Cc3cc(C(=O)N[C@H]4CC[C@@H]4O)nc4ccsc34)cn2)cn1 [Compound 328, N-[(1S,2S)-2-hydroxycyclobutyl]-7-[[6-(1-methylpyrazol-4-yl)-3-pyridyl]methyl]thieno[3,2-b]pyridine-5-carboxamide] | 0.197 | 80.5
O=C(NC1CC2(COC2)C1)c1cc(Cc2ccc(-c3nccs3)cc2)c2sccc2n1 [Compound 333] | 0.446 | 84.7
Cn1cc(-c2ccc(Cc3cc(C(=O)NCC4CCOCC4)nc4ccsc34)cn2)cn1 [Compound 334, 7-[[6-(1-methylpyrazol-4-yl)-3-pyridyl]methyl]-N-(tetrahydropyran-4-ylmethyl)thieno[3,2-b]pyridine-5-carboxamide] | 0.103 | 83
Cn1cc(-c2ccc(Cc3cc(C(=O)NC4CCOC(C)(C)C4)nc4ccsc34)cn2)cn1 (stereo not drawn) [Compound 336, N-(2,2-dimethyltetrahydropyran-4-yl)-7-[[6-(1-methylpyrazol-4-yl)-3-pyridyl]methyl]thieno[3,2-b]pyridine-5-carboxamide] | 0.0643 | 58.4
Cn1cc(-c2ccc(Cc3cc(C(=O)NCC4CCO4)nc4ccsc34)cn2)cn1 (stereo not drawn) [Compound 338, 7-[[6-(1-methylpyrazol-4-yl)-3-pyridyl]methyl]-N-(oxetan-2-ylmethyl)thieno[3,2-b]pyridine-5-carboxamide] | 0.0849 | 93.3
Cn1cc(-c2ccc(Cc3cc(C(=O)NC[C@H]4CCCO4)nc4ccsc34)cn2)cn1 [Compound 339, 7-[[6-(1-methylpyrazol-4-yl)-3-pyridyl]methyl]-N-[[(2R)-tetrahydrofuran-2-yl]methyl]thieno[3,2-b]pyridine-5-carboxamide] | 0.131 | 87.4

Further lines, results first:

EC50 [µM] | Emax [%] | SMILES
1.41 | 72.2 | Cc1csc2c(Cc3ccc(-n4cccn4)cc3)cc(C(=O)NCC3CCOCC3)nc12 [Compound 318, 3-methyl-7-[(4-pyrazol-1-ylphenyl)methyl]-N-(tetrahydropyran-4-ylmethyl)thieno[3,2-b]pyridine-5-carboxamide]
0.689 | 76.8 | Cc1csc2c(Cc3ccc(-n4cccn4)cc3)cc(C(=O)NC[C@@H]3CCCO3)nc12 [Compound 323, 3-methyl-7-[(4-pyrazol-1-ylphenyl)methyl]-N-[[(2S)-tetrahydrofuran-2-yl]methyl]thieno[3,2-b]pyridine-5-carboxamide]
2.84 | 83.9 | CC1CC(NC(=O)c2cc(Cc3ccc(-c4ccn(C)n4)cc3)c3sccc3n2)CC(C)O1 (stereo not drawn) [Compound 326, N-(2,6-dimethyltetrahydropyran-4-yl)-7-[[4-(1-methylpyrazol-3-yl)phenyl]methyl]thieno[3,2-b]pyridine-5-carboxamide]
0.166 | 79.2 | Cn1cc(-c2ccc(Cc3cc(C(=O)NC4CC5(COC5)C4)nc4ccsc34)cn2)cn1 [Compound 327, 7-[[6-(1-methylpyrazol-4-yl)-3-pyridyl]methyl]-N-(2-oxaspiro[3.3]heptan-6-yl)thieno[3,2-b]pyridine-5-carboxamide]
0.458 | 73.5 | Cc1nc(-c2ccc(Cc3cc(C(=O)NC4CCOCC4)nc4c(C)csc34)cc2)co1 [Compound 329, 3-methyl-7-[[4-(2-methyloxazol-4-yl)phenyl]methyl]-N-tetrahydropyran-4-yl-thieno[3,2-b]pyridine-5-carboxamide]
0.0228 | 62.8 | Cc1nc(-c2ccc(Cc3cc(C(=O)N[C@H]4CCOC[C@@H]4O)nc4c(C)csc34)cc2)co1 [Compound 330, N-[(3R,4S)-3-hydroxytetrahydropyran-4-yl]-3-methyl-7-[[4-(2-methyloxazol-4-yl)phenyl]methyl]thieno[3,2-b]pyridine-5-carboxamide]
0.368 | 69.7 | Cc1nc(-c2ccc(Cc3cc(C(=O)N[C@H]4CCC[C@@H]4O)nc4c(C)csc34)cc2)co1 [Compound 331, N-[(1S,2S)-2-hydroxycyclopentyl]-3-methyl-7-[[4-(2-methyloxazol-4-yl)phenyl]methyl]thieno[3,2-b]pyridine-5-carboxamide]
0.0569 | 69 | O=C(NC1CCOCC1)c1cc(C(F)c2ccc(-c3cscn3)cc2)c2sccc2n1 (stereo not drawn) [Compound 332, 7-[fluoro-(4-thiazol-4-ylphenyl)methyl]-N-tetrahydropyran-4-yl-thieno[3,2-b]pyridine-5-carboxamide]
0.158 | 83.6 | CC1CC(NC(=O)c2cc(Cc3ccc(-c4cnn(C)c4)nc3)c3sccc3n2)CC(C)O1 (stereo not drawn) [Compound 335, N-(2,6-dimethyltetrahydropyran-4-yl)-7-[[6-(1-methylpyrazol-4-yl)-3-pyridyl]methyl]thieno[3,2-b]pyridine-5-carboxamide]
0.852 | 84.2 | CC1(C)CC(NC(=O)c2cc(Cc3ccc(-c4nccs4)cc3)c3sccc3n2)CCO1 (stereo not drawn) [Compound 337]
0.225 | 88.3 | Cn1cc(-c2ccc(Cc3cc(C(=O)NCC4CCCCO4)nc4ccsc34)cn2)cn1 (stereo not drawn) [Compound 340, 7-[[6-(1-methylpyrazol-4-yl)-3-pyridyl]methyl]-N-(tetrahydropyran-2-ylmethyl)thieno[3,2-b]pyridine-5-carboxamide]
1.69 | 78.8 | Cn1cc(-c2ccc(Cc3cc(C(=O)NC4COC4)nc4ccsc34)cn2)cn1 [Compound 341, 7-[[6-(1-methylpyrazol-4-yl)-3-pyridyl]methyl]-N-(oxetan-3-yl)thieno[3,2-b]pyridine-5-carboxamide]
